In this assay the target is Leucine-rich repeat serine/threonine-protein kinase 2 (Homo sapiens, UniProt Q5S007, G2019S). The assay is described as follows: Inhibition of GST-tagged truncated human LRRK2 G2019S mutant using fluorescein labeled LRRKtide peptide as substrate preincubated for 15 mins followed by substrate addition and measured after 90 mins in presence of ATP at Km concentration by TR-FRET Lanthascreen assay. (Time-resolved FRET reads energy transfer from a long-lived donor to a nearby acceptor.)
Leucine-rich repeat serine/threonine-protein kinase 2, sequence (Q5S007 whole entry G2019S, the tested form may be a part): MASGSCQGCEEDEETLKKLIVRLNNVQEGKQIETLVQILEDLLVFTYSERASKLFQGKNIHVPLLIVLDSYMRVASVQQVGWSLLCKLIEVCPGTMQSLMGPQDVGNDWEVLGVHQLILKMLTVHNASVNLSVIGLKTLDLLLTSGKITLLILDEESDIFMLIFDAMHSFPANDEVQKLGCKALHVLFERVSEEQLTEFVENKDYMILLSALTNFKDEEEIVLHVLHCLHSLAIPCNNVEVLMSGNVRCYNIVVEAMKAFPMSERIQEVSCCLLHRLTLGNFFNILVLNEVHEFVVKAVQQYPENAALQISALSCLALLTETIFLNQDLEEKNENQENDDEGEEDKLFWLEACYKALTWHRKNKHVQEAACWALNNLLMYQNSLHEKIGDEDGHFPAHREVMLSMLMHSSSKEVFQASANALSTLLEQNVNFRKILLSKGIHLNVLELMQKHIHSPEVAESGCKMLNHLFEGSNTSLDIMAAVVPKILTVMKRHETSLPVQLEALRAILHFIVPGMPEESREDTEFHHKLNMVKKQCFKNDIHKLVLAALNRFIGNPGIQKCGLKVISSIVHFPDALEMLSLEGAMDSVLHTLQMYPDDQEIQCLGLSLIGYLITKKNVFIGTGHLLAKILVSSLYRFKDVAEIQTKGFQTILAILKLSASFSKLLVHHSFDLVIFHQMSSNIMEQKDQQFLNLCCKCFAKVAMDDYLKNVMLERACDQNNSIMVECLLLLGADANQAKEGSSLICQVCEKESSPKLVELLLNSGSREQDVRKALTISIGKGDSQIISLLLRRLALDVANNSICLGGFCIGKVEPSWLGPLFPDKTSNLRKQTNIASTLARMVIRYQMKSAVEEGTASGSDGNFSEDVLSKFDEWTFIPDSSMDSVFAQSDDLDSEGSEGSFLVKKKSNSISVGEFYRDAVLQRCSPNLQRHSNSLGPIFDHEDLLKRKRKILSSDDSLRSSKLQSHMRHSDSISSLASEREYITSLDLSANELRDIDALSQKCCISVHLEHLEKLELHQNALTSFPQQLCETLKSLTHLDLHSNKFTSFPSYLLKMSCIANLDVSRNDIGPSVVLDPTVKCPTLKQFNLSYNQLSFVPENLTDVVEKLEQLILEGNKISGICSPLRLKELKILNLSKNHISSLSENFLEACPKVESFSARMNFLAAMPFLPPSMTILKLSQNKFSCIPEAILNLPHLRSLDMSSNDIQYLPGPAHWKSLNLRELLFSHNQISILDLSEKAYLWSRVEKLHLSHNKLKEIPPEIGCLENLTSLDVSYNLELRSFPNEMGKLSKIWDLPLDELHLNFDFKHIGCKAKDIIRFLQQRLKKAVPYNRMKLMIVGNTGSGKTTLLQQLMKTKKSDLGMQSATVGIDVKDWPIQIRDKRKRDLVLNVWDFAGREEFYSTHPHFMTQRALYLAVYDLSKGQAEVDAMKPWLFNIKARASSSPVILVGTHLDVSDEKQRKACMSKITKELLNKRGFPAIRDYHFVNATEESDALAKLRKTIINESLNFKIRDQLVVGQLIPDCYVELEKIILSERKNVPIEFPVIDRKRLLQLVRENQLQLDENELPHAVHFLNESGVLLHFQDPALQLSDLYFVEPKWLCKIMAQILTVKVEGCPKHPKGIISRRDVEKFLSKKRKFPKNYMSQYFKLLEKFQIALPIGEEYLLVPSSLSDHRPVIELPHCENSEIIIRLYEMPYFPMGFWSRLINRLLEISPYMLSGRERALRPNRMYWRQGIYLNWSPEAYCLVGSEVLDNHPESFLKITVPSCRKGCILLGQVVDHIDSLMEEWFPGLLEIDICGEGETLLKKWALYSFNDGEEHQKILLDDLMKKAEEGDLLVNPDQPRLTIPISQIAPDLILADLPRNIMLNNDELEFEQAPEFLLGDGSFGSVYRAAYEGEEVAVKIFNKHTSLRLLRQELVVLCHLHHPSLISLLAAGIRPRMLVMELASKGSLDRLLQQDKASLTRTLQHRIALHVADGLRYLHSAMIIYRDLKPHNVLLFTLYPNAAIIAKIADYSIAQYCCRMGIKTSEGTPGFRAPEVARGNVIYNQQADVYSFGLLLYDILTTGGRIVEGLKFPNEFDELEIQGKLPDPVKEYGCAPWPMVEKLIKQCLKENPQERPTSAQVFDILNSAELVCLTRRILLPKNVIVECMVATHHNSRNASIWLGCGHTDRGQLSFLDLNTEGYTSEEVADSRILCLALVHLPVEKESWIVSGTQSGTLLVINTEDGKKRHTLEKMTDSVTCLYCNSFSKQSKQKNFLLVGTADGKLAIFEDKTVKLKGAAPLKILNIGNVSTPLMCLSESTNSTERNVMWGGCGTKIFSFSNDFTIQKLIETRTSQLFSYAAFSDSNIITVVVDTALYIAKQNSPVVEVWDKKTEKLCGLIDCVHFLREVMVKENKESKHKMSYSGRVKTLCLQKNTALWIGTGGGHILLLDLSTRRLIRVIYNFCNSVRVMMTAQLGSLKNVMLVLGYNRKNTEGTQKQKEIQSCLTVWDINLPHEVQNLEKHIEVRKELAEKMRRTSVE
In general, IC50 refers to the point on the concentration scale where inhibition reaches its midpoint. For the compound `CC1NN=CC1Nc1ncc2cc(Cl)c(N3CCC(C)(O)C(C)C3)cc2n1` (stereo unspecified), the IC50 was 0.0646 nM.
Regarding `CC(C)(O)CN1CCN(c2cc3nc(Nc4cnn(C5CC5)c4Cl)ncc3cc2Cl)CC1`, the IC50 is 0.0759 nM.
As for `Clc1cc2cnc(Nc3cnn(C45CC(C4)C5)c3Cl)nc2cc1N1CCC2(CCCO2)CC1`, the IC50 was 0.174 nM.
Regarding `CC(C)(C)Cn1cc(Nc2ncc3cc(Cl)c(N4CCC(C5(C)COC5)CC4)cc3n2)cn1`, the IC50 is 0.187 nM.
The result for `Cc1c(Nc2ncc3cc(Cl)c(N4C(=O)OC[C@H]4C)cc3n2)cnn1C1CCOCC1` reads 0.451 nM; that for `CC1(O)CCN(c2cc3nc(Nc4cnn(C5CC5)c4Cl)ncc3cc2Cl)C1` (stereo unspecified), 0.169 nM.

Source of the values: ChEMBL document CHEMBL5131528, “2-Aminoquinazolines as LRRK2 Inhibitors for Treating Parkinson's Disease” (ACS Med Chem Lett, 2022).
